# Test results: PMC3307315 (The Journal of Biological Chemistry, 2012)
# B1: GLUE-WTX: N-terminal streptavidin-binding protein, calmodulin-binding protein, the hemagglutinin epitope (HA), and WTX (protein, UniProt Q5JTC6 1-1135, looked up)
# APC membrane recruitment …: METQKDEAAQAKGAAASGSTREQTAEKGAKNKAAEATEGPTSEPSSSGPGRLKKTAMKLFGGKKGICTLPSFFGGGRSKGSGKGSSKKGLSKSKTHDGLSEAAHGPEDVVSEGTGFSLPLPELPCQFPSSQSAHGALETGSRCKTSVAGATEKAVAEKFPSMPKPKKGLKGFFSSIRRHRKSKVTGAEQSEPGAKGPERVRARPHEHVSSAPQVPCFEETFQAPRKENANPQDAPGPKVSPTPEPSPPATEKMACKDPEKPMEACASAHVQPKPAPEASSLEEPHSPETGEKVVAGEVNPPNGPVGDPLSLLFGDVTSLKSFDSLTGCGDIIAEQDMDSMTDSMASGGQRANRDGTKRSSCLVTYQGGGEEMALPDDDDEEEEEEEEVELEEEEEEVKEEEEDDDLEYLWETAQMYPRPNMNLGYHPTTSPGHHGYMLLDPVRSYPGLAPGELLTPQSDQQESAPNSDEGYYDSTTPGFEDDSGEALGLVRRDCLPRDSYSGDALYEFYEPDDSLENSPPGDDCLYDLHGRSSEMFDPFLNFEPFLSSRPPGAMETEEERLVTIQKQLLYWELRREQLEAQEARAREAHAREAHAREAYTREAYGREAYAREAHTWEAHGREARTREAQAREVRCRETQVRETQARQEKPVLEYQMRPLGPSVMGLAAGVSGTSQISHRGITSAFPTTASSEPDWRDFRPLEKRYEGTCSKKDQSTCLMQLFQSDAMFEPDMQEANFGGSPRRAYPTYSPPEDPEEEEVEKEGNATVSFSQALVEFTSNGNLFSSMSCSSDSDSSFTQNLPELPPMVTFDIADVERDGEGKCEENPEFHNDEDLAASLEAFELGYYHKHAFNNYHSRFYQGLPWGVSSLPRYLGLPGLHPRPPPAAMALNRRSRSLDTAETLEMELSNSHLVQGYLESDELQAQQEDSDEEDEEEEEGEWSRDSPLSLYTEPPGAYDWPAWAPCPLPVGPGPAWISPNQLDRPSSQSPYRQATCCIPPMTMSISLSVPESRAPGESGPQLARPSHLHLPMGPCYNLQPQASQSMRARPRDVLLPVDEPSCSSSSGGFSPSPLPQAKPVGITHGIPQLPRVRPEHPQPQPTHYGPSSLDLSKERAEQGASLATSYSSTAMNGNLAK
# modifications: streptavidin-binding, calmodulin-binding peptide and HA tags
# What was measured:
# NRF2 = conditions: cited from earlier work
# HEK293T cells = assay: Cell viability; format: cell-based; conditions: siRNA knockdown, etoposide, MTT (Fig. 2E)
# 35S-labeled NRF2 = format: biochemical; conditions: HEK293T cell-free extracts
# endogenous KEAP1 = assay: Streptavidin affinity pulldown of GLUE-WTX and Western blot, endogenous KEAP1; format: cell-based
Molecule,half-life of exogenous and endogenous NRF2 in intact cells (NRF2),resistance to apoptosis-inducing reagents (conclusion) (HEK293T cells),half-life of exogenous NRF2 in cell extracts (35S-labeled NRF2),complex with endogenous KEAP1 (endogenous KEAP1)
NRF2: transcription factor NF-E2-related factor-2,~0.333 h,promote resistance to apoptotic inducing reagents,~6 h,–
B1,–,–,–,endogenous KEAP1 forms a complex with GLUE-WTX
